In patent US20230382919A1, “OXA- IBOGAINE INSPIRED ANALOGUES FOR TREATMENT OF NEUROLOGICAL AND PSYCHIATRIC DISORDERS” (The Trustees of Columbia University in the City of New York, priority 2021, published 2023):

Test system: C57BL/6J mice
Assay: Tail-flick test
Type: in vivo
Conditions: Mus musculus, sc, 10-30 mg/kg dose range
Description: C57BL/6J (8-12 weeks, 22-31 g) were purchased from the Jackson Laboratory (Bar Harbor, ME) and housed 5 mice per cage with food and water available ad libitum. Mice were maintained on a 12-hr light/dark cycle (lights on 7:00-19:00) and all testing was done in the light cycle. Temperature was kept constant at 22±2° C., and relative humidity was maintained at 50±5%. Mice were moved to the testing room 30 minutes before the experiment to allow for acclimation. The body weight of each mouse and base tail-flick value were recorded. Mice were administered a 1 mg/kg s.c. dose of compound solution (volume of injection 220-310 μL based on body weight). After injection mice were returned to the home cage and allowed to rest for 30 minutes. Thirty minutes post injection the tail-flick measurement was taken using thermal stimulation via IR on a Ugo Basile unit set to 52 PSU (ten seconds was used as a maximum latency to prevent tissue damage). Mice were then administered 3 mg/kg s.c. dose, allowed to rest for 30 minutes, followed by another tail-flick measurement. […] Tail-flick latencies for the different doses were expressed as percentage of maximum potential effect (% MPE) by subtracting the experimental value by the base tail flick value then dividing by the difference between the maximum possible latency (10 seconds) and the base tail-flick value and finally multiplying by 100. […]

c1ccc2c3c([nH]c2c1)C1CCCN(CC3)C1 (stereo not shown) [Compound 61, 1,4,5,6,7,8-hexahydro-2H-3,7-methanoazonino[5,4-b]indole]
ED50: 16.5 mg/kg
